In patent US20250034118A1, “ANTIMALARIAL HEXAHYDROPYRIMIDINE DERIVATIVES” (UCB BIOPHARMA SRL, priority 2021, published 2025):
Counter-ions that a name gives are not always drawn. Like-named read-outs stand apart in the source and are kept apart here.

Tested on: Plasmodium falciparum 3D7 strain
Assay: P. falciparum 3D7 asexual blood stage assay (SYBR green readout)
Assay type: cell-based
Excerpt: The compounds of the present invention are potent inhibitors of the growth and propagation of the Plasmodium falciparum parasite in human blood.
The assay used to measure the effect of test compounds on a bloodstream stage of Plasmodium falciparum 3D7 strain employs SYBR green as the readout. This is a dye that binds to double stranded deoxyribonucleic acid (DNA) with a resulting increase in fluorescence, allowing detection of P. falciparum DNA in infected erythrocytes, and thereby providing a measure of parasite growth and propagation.
Erythrocytes (A+ blood) were prepared for both parasite culture and assay by washing 4 times with incomplete media (15.9 g RPMI 1640 (25 mM HEPES, L-glutamine), 1 g NaHCO3, 2 g glucose, 400 μL gentacin (500 mg/mL), 2 mL hypoxanthine solution (13.6 g/L in 0.1M NaOH pH 7.3) in 1 litre of media). The cells were centrifuged at 1800 g for 5 minutes, before decanting the supernatant and re-suspending in fresh incomplete media. On the final wash, the cells were re-suspended in complete media (incomplete media with 5 g/L AlbumaxII), and centrifuged at 1800 g for 3 minutes. This cell sediment was treated as 100% haematocrit.
P. falciparum 3D7 was cultured in erythrocytes at 5% haematocrit in complete media at 37° C. (1% O2, 3% CO2, balance N2). […]
On day 5, fluorescent signal was measured using a BioTek plate reader (excitation 485 nm, emission 528 nm). […]

CO[C@H]1C[C@@H](N2C(=N)N[C@](C)(c3cccc(NC(=O)c4cncn4CC(F)(F)F)c3Cl)CC2=O)CCC1(F)F (relative stereo) [Example 2, N-(2-Chloro-3-{(4S)-1-[(1S*, 3S*)-4,4-difluoro-3-methoxycyclohexyl]-2-imino-4-methyl-6-oxohexahydropyrimidin-4-yl}phenyl)-3-(2,2,2-trifluoroethyl)imidazole-4-carboxamide hydrochloride]
IC50 (3D7, Erythrocyte, 72 h): 4.2 nM

C[C@@H]1C[C@H](N2C(=N)N[C@](C)(c3cccc(NC(=O)c4cncn4CC(F)(F)F)c3Cl)CC2=O)CCC1(F)F [Example 1, N-(2-Chloro-3-{(4S)-1-[(1R,3R)-4,4-difluoro-3-methylcyclohexyl]-2-imino-4-methyl-6-oxohexahydropyrimidin-4-yl}phenyl)-3-(2,2,2-trifluoroethyl)imidazole-4-carboxamide]
IC50 (Erythrocyte, P. falciparum 3D7 in erythrocytes, 5% haematocrit, 0.5% parasitaemia, 72 h incubation, SYBR green fluorescence, read-out: IC50): 5 nM
